Structures are written as SMILES.

The subject of one assay is DIGSA. The assay can be described thus: Post-emergence herbicidal effect, greenhouse pot test. The class given is in vivo, Digitaria sanguinalis. The settings on record: 320 g/ha, visual rating about 3 weeks after treatment. In outline: (§1)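 Greenhouse pot test: weeds and crops sown in sandy loam, sprayed post-emergence at one-leaf stage (2–3 weeks after sowing) with WP or EC formulations plus 0.5% additive at 600 l/ha water, rates 20–320 g/ha. Visual rating about 3 weeks later versus untreated controls (100% = dead, 0% = as control).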

In another assay the test system is VERPE. The assay is described as above. The class given is in vivo, Veronica persica. In outline:
as §1

The next assay deals with LOLRI. The description is as above. The settings on record: 320 g/ha. The class given is in vivo, Lolium rigidum. The procedure, abridged:
as §1

The next assay has as its system SETVI. Described as above. The class given is in vivo, Setaria viridis. The procedure, abridged: as §1
The next assay relates to ZEAMX. The assay is described as follows: Post-emergence herbicidal effect and crop plant compatibility, greenhouse pot test. The settings on record: 20 g/ha, one-leaf stage, rated visually after about 3 weeks vs untreated controls. The class given is in vivo, Zea mays. The procedure, abridged: (§2)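 Sandy loam pots, greenhouse. One-leaf stage (2–3 wk after sowing) foliar spray; WP/EC in water + 0.5% additive, 600 l/ha; 20–320 g/ha. Visual score ~3 wk, 0–100% vs untreated.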

For a further assay, the system named is TRZAS. The description is as above. The class given is in vivo, Triticum aestivum. The settings on record: 20 g/ha, one-leaf stage, rated visually after about 3 weeks vs untreated controls. In outline: as §2
The next assay concerns ABUTH. The assay is described as follows: Post-emergence herbicidal effect, greenhouse pot test. The class given is in vivo, Abutilon theophrasti. The settings on record: visual rating about 3 weeks after treatment. The procedure, abridged:
as §1

The subject of another assay is MATIN. Described as above. The class given is in vivo, Tripleurospermum inodorum. The procedure, abridged: as §1
The test system of a further assay is VIOTR. The description is as above. The class given is in vivo, Viola tricolor. In outline:
as §1

The subject of another assay is PHBPU. Described as above. The class given is in vivo, Ipomoea purpurea. The procedure, abridged:
as §1

The next assay has as its system AMARE. The description is as above. The following applies: 320 g/ha, visual rating about 3 weeks after treatment. The class given is in vivo, Amaranthus retroflexus. In outline: as §1
The next assay relates to POLCO. Described as above. The class given is in vivo, Fallopia convolvulus. In outline:
as §1

The next assay deals with KCHSC. The description is as above. The class given is in vivo. The procedure, abridged: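 Greenhouse plants in sandy loam, sprayed post-emergence at the one-leaf stage (2–3 weeks after sowing) with WP or EC formulations in water plus 0.5% additive at 600 l/ha. Rates 20 to 320 g/ha. Activity rated visually after about 3 weeks against untreated controls (0% like control, 100% dead).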

A further assay concerns ECHCG. Described as above. The class given is in vivo, Echinochloa crus-galli. In outline:
as §1

In a further assay the test system is AVEFA. The assay is described as above. The class given is in vivo, Avena fatua. The settings on record: 320 g/ha, visual rating about 3 weeks after treatment. In outline: as §1
A further assay relates to ALOMY. The description is as above. The class given is in vivo, Alopecurus myosuroides. The following applies: 320 g/ha, visual rating about 3 weeks after treatment. In outline: as §1
A further assay has as its system various unwanted plants. The assay is described as follows: Post-emergence effect against various unwanted plants (PO): comparative test of I-01 with compounds from WO2020/245044 (Tables 41a, 41b) and summary statements. The class given is in vivo. The following applies: 80 g/ha, comparative test. How it is done:
Seeds of monocotyledonous and dicotyledonous weeds and crop plants are placed in sandy loam in plastic or organic planting pots, covered with soil and cultivated in a greenhouse under controlled growth conditions. 2 to 3 weeks after sowing, the trial plants are treated at the one-leaf stage. The compounds of the invention, formulated in the form of wettable powders (WP) or as emulsion concentrates (EC), are then sprayed onto the green parts of the plants as aqueous suspension or emulsion with addition of 0.5% additive at a water application rate of 600 l/ha (converted). After the test plants have been kept in the greenhouse under optimum growth conditions for about 3 weeks, the activity of the preparations is rated visually in comparison to untreated controls. For example, 100% activity=the plants have died, 0% activity=like control plants. […] Tables 41a and 41b below show the effects of the inventive compound (I-01) with structurally similar compounds (WO2020/245044) on various harmful plants at an application rate corresponding to 320 g/ha or less, which have been obtained by the trial procedure specified hereinafter. The inventive compound (I-01) differs here by variance of a significant structural feature from the structurally similar compound with regard to the R^2 radical. Seeds of monocotyledonous and dicotyledonous weeds and crop plants are placed in sandy loam in plastic or organic planting pots, covered with soil and cultivated in a greenhouse under controlled growth conditions. 2 to 3 weeks after sowing, the trial plants are treated at the one-leaf stage. The compounds of the invention, formulated in the form of wettable powders (WP) or as emulsion concentrates (EC), are then sprayed onto the green parts of the plants as aqueous suspension or emulsion with addition of 0.5% additive at a water application rate of 600 l/ha (converted). After the test plants have been kept in the greenhouse under optimum growth conditions for about 3 weeks, the activity of the preparations is rated visually in comparison to untreated controls. For example, 100% activity=the plants have died, 0% activity=like control plants. Effects/crop compatibilities of selected compounds (see Table 39) on various harmful plants at an application rate corresponding to 80 to 320 g/ha that have been obtained by the trial procedure specified hereinafter are shown in Tables 41a and 41b below.

As for `COC(=O)C(OC)Oc1nn(-c2ccccc2F)c(-c2ccc(F)nc2)c1C1CC1` (stereo not drawn) [Example I-71], the pest or weed control at 320 g/ha was found to be 90% in the assay with DIGSA (Digitaria sanguinalis, 504 h, read-out: Post-emergence effect against DIGSA); 90% in the assay on VERPE (Veronica persica, 504 h, 320 g/ha, read-out: Post-emergence effect against VERPE in %); 90% in the assay on LOLRI (Lolium rigidum, 504 h, read-out: Post-emergence effect against LOLRI in %); 90% in the assay on SETVI (Setaria viridis, 504 h, 320 g/ha, read-out: Post-emergence effect against SETVI in %); 90% with ABUTH (Abutilon theophrasti, 504 h, 320 g/ha, read-out: Post-emergence effect against ABUTH); 80% with MATIN (Tripleurospermum inodorum, 504 h, 320 g/ha, read-out: Post-emergence effect against MATIN in %). Moreover, the pest or weed control at 320 g/ha with VIOTR (Viola tricolor, 504 h, 320 g/ha, read-out: Post-emergence effect against VIOTR in %) was 90%; in the assay on PHBPU (Ipomoea purpurea, 504 h, 320 g/ha, read-out: Post-emergence effect against PHBPU in %) it was 90%; with AMARE (Amaranthus retroflexus, 504 h, read-out: Post-emergence effect against AMARE), 80%; in the assay with POLCO (Fallopia convolvulus, 504 h, 320 g/ha, read-out: Post-emergence effect against POLCO in %), 80%; with KCHSC (504 h, 320 g/ha, read-out: Post-emergence effect against KCHSC in %) it was 90%; in the assay with ECHCG (Echinochloa crus-galli, 504 h, 320 g/ha, read-out: Post-emergence effect against ECHCG in %), 90%. Also, the pest or weed control at 320 g/ha stood at 90% in the assay on AVEFA (Avena fatua, 504 h, read-out: Post-emergence effect against AVEFA) and 90% in the assay on ALOMY (Alopecurus myosuroides, 504 h, read-out: Post-emergence effect against ALOMY). Moreover, the pest or weed control at 80 g/ha in the assay on VERPE (Veronica persica, 504 h, 80 g/ha, read-out: Post-emergence effect against VERPE in %) stood at 90%; in the assay on SETVI (Setaria viridis, 504 h, 80 g/ha, read-out: Post-emergence effect against SETVI in %), 80%; in the assay with ABUTH (Abutilon theophrasti, 504 h, 80 g/ha, read-out: Post-emergence effect against ABUTH), 90%; in the assay on MATIN (Tripleurospermum inodorum, 504 h, 80 g/ha, read-out: Post-emergence effect against MATIN in %), 80%; in the assay on VIOTR (Viola tricolor, 504 h, 80 g/ha, read-out: Post-emergence effect against VIOTR in %), 90%; in the assay on PHBPU (Ipomoea purpurea, 504 h, 80 g/ha, read-out: Post-emergence effect against PHBPU in %) it was 90%. The pest or weed control at 80 g/ha worked out at 80% in the assay on POLCO (Fallopia convolvulus, 504 h, 80 g/ha, read-out: Post-emergence effect against POLCO in %); 80% in the assay on KCHSC (504 h, 80 g/ha, read-out: Post-emergence effect against KCHSC in %); 90% with ECHCG (Echinochloa crus-galli, 504 h, 80 g/ha, read-out: Post-emergence effect against ECHCG in %). The plant injury at 20 g/ha with ZEAMX (Zea mays, 504 h, read-out: Post-emergence effect at 20 g/ha against ZEAMX in %) was determined as 10%. The percent crop injury (phytotoxicity) to wheat, post-emergence at 20 g/ha in the assay with TRZAS (Triticum aestivum, 504 h, read-out: Post-emergence effect at 20 g/ha against TRZAS in %) was 20%. The pest or weed control at 20 g/ha came out at 90% with VIOTR (Viola tricolor, 504 h, 20 g/ha, read-out: Post-emergence effect against VIOTR in %); 80% in the assay with PHBPU (Ipomoea purpurea, 504 h, 20 g/ha, read-out: Post-emergence effect against PHBPU in %); 90% in the assay with ECHCG (Echinochloa crus-galli, 504 h, 20 g/ha, visual rating about 3 weeks after treatment, read-out: Post-emergence effect against ECHCG).

`CCOC(Oc1nn(-c2ccccc2F)c(-c2ccc(F)nc2)c1Cl)C(=O)OCCC(=O)OC` (stereo not drawn) [Example I-53]: in the assay on DIGSA, the “Post-emergence effect against DIGSA” value is 90%. Besides, the “Post-emergence effect against VERPE in %” value stood at 80% in the assay on VERPE (80 g/ha) and 90% with VERPE (320 g/ha). For the same compound, the “Post-emergence effect against LOLRI in %” value in the assay with LOLRI was found to be 90%. Besides, in the assay with SETVI (320 g/ha), the “Post-emergence effect against SETVI in %” value is 90%. Further, the “Post-emergence effect at 20 g/ha against ZEAMX in %” value in the assay with ZEAMX is 0%. In addition, the “Post-emergence effect at 20 g/ha against TRZAS in %” value with TRZAS was 0%. In the assay on ABUTH (320 g/ha), the “Post-emergence effect against ABUTH” value is recorded as 80%. Besides, the “Post-emergence effect against MATIN in %” value with MATIN (320 g/ha) is 80%. Also, the “Post-emergence effect against VIOTR in %” value in the assay on VIOTR (80 g/ha) and in the assay on VIOTR (320 g/ha) was 80% each time. In addition, the “Post-emergence effect against PHBPU in %” value in the assay with PHBPU (80 g/ha) and in the assay on PHBPU (320 g/ha) was 90% each time. Further, in the assay with AMARE, the “Post-emergence effect against AMARE” value is listed as 80%. Moreover, the “Post-emergence effect against POLCO in %” value in the assay on POLCO (80 g/ha) and with POLCO (320 g/ha) was 80% in each case. For the same compound, the “Post-emergence effect against KCHSC in %” value in the assay on KCHSC (320 g/ha) stood at 80%. Further, the “Post-emergence effect against ECHCG in %” value in the assay on ECHCG (80 g/ha) and in the assay with ECHCG (320 g/ha) was 90% throughout. Further, the “Post-emergence effect against AVEFA” value in the assay on AVEFA is 90%. For the same compound, the “Post-emergence effect against ALOMY” value in the assay with ALOMY was 100%.

In the case of `CCOC(=O)COc1nn(-c2ccccc2F)c(-c2ccc(F)nc2)c1Br` [B], the “Post-emergence effect, Effect %, ALOMY” value in the assay with various unwanted plants (ALOMY) stood at 70%. Moreover, in the assay on various unwanted plants (AVEFA), the “Post-emergence effect, Effect %, AVEFA” value stood at 80%. Moreover, the “Post-emergence effect, Effect %, ECHCG” value in the assay on various unwanted plants (ECHCG) was 50%. Also, the “Post-emergence effect, Effect %, LOLRI” value in the assay on various unwanted plants (LOLRI) is reported as 30%. For the same compound, in the assay with various unwanted plants (SETVI), the “Post-emergence effect, Effect %, SETVI” value amounted to 70%.

The values are drawn from patent US20240391862A1, “(1,4,5-TRISUBSTITUTED-1H-PYRAZOL-3-YL)OXY-2-ALKOXY ALKYL ACIDS AND THEIR DERIVATIVES, THEIR SALTS AND THEIR USE AS HERBICIDAL AGENTS” (Bayer AKtiengesellschaft, priority 2021, published 2024).
